Experimental data from US20020156016A1, “Control of cell growth by altering cell membrane potentials” (priority 2001, published 2002).

Assays:
Assay type in all cases: cell-based, human
Chang cells = experiment: Cell PD determination (TMRE fluorescence); conditions: non-transfected Chang cells, 50 μM muscimol, 48 hours
Procedure: (§1) A Leica DM IRB fluorescence microscope equipped with a PDMI-2 Open perfusion Micro-incubator (Harvard Apparatus, Saint-Laurent, Quebec) was used to measure PDs as described by Loew (Loew, 1998, Cell Biology: A Laboratory Handbook). The incubating temperature was 37° C. Twenty four hour cultured healthy, human hepatocytes and malignant hepatocytes were washed with NB buffer (130 mM NaCl, 5.5 mM KCl, 1.8 mM CaCl2, 1.0 mM MgCl2, 25 mM glucose and 20 mM HEPES buffer adjusted to pH 7.4) three times and then incubated for 10 min with NTB buffer (100 nM tetramethylrhodamine ethyl ester (TMRE) in NB buffer). After obtaining photographs of the fluorescent cells, they were washed with KB buffer (130 mM KCl, 5.5 mM NaCl, 1.8 mM CaCl2, 1.0 mM MgCl2, 25 mM glucose and 20 mM HEPES buffer adjusted to pH 7.4) three times and incubated for 10 min with DTB buffer (100 nM TMRE and 1 μM valinomysin in KB buffer). Photographs were then obtained of the depolarized cells. Fluorescence within the cell was designated intracellular fluorescence (Fin) and fluorescence outside the cell as extracellular fluorescence (Fout). To calculate PDs the Nernst equation was used.
(§2) PD=−(RT/ZF)λn[Fin dFout)/(FoutdFin),
where PD is membrane potential, Z is the charge of the permeable ion, F is Faraday's constant, R is the ideal gas constant and T is the absolute temperature. […]

[1] = tested on: Chang cells transfected with GABAA-β3 receptor cDNA; experiment: Cell PD determination (TMRE fluorescence) after muscimol exposure
Procedure: as §1, §2
(§3) where PD is membrane potential, Z is the charge of the permeable ion, F is Faraday's constant, R is the ideal gas constant and T is the absolute temperature.
(§4) To determine whether further hyperpolarization could be achieved in Chang cells transfected with GABAA-β3 receptor cDNA, these cells together with non-transfected Chang cells and Chang cells transfected with vector alone were exposed to 50 μM muscimol, a specific GABAA receptor agonist for 48 hours.

[2] = tested on: Chang cells transfected with vector alone; experiment: as above; conditions: 50 μM muscimol, 48 hours
Procedure: as §1, §2, §3, §4

[3] = tested on: Chang cells transfected with GABAA-β3 receptor cDNA; experiment: Proliferative activity after varying concentrations of muscimol; conditions: muscimol 0-100 μM, FIG. 12
Procedure: (§5) [^3H]-thymidine incorporation was determined as described by Luk (Luk, 1986, Gastroenterology 90: 1261-1267). 5×10^4 cells were seeded into 6-well plates. After two days of culture to allow attachment to plate bottoms, cells were incubated with 1 μCi [^3H]-thymidine for 2 hours at 37° C. [^3H]-thymidine incorporated into cellular DNA was precipitated by the addition of 10% trichloroacetic acid (TCA) for 15 min at room temperature. Cells were rinsed and resolublilized in a 0.3 M NaOH and 1% SDS solution then assayed for radioactivity in a […].
(§6) Bromodeoxyuridine (BrdUrd) incorporation was determined by seeding 5×10^3 cells into 96 well plates. At subconfluence, cells were incubated with serum-free DMEM. Twenty-four hours later, the media was switched to DMEM containing BrdUrd for 2 hours. Incoroporation of BrdUrd was determined using a 5-Bromo-2′-deoxyuridine Labeling and Detection Kit III (Roche Diagnostics, Mississauga, Ontario, Canada) according to the manufacturer's instructions. Absorbance at 450-490 nm was measured using a microplate reader (Molecular Devices, Menlo Park, Calif., USA).
(§7) WST-1 determinations were performed using a commercially available kit (Boehringer Mannheim Canada, Laval, Quebec, Canada). Briefly, 1×10^4 cells were seeded into 96 well plates. After two days of culture one tenth the volume of 4-[3-(4-lodophenyl)-2-(4-nitrophenyl)-2H-5-tetrazolio]-1,3-benzene disulfonate (WST-1, Boehringer Mannheim, Laval, PQ) was added to each well, and the cells incubated with WST-1 for 4 h in 37° C. Asborbance at A405-A650 was determined by a microplate reader (Molecular Devices, Menlo Park, Calif., USA).
(§8) To determine whether the addition of muscimol and/or other GABAA receptor agonists might have therapeutic value in inhibiting the growth of malignant hepatocytes with restored GABAAβ3 receptor mRNA expression, proliferative activity was documented in Chang cells transfected with GABAA-β3 receptor cDNA or vector alone following exposure to varying concentrations of muscimol (0-100 μM).

[4] = tested on: Chang cells transfected with vector alone; experiment: as above; conditions: muscimol 0-100 μM, FIG. 12
Procedure: as §5, §6, §7, §8

NCc1cc(=O)[nH]o1 [muscimol]
effect on PDs (Chang cells): little or no effect
increase of PDs after muscimol ([1]; 50 μM muscimol, 48 hours): approximately 40%
PD post-muscimol ([1]; 50 μM muscimol, 48 hours, pre-muscimol −12.0±0.9): −16.4±0.8
effect on membrane potentials (PDs), in words ([1]; Muscimol 50 μM, FIG. 11): became more polarized
effect on PDs [2]: little or no effect
proliferative activity [3]: dose dependent decrease
proliferative activity ([3]; listed as Muscimol): significantly decreased in a dose dependent fashion
proliferative activity [4]: remained essentially unaltered
